Measured values: PubChem BioAssay AID1159565 (GlaxoSmithKline (GSK), 2015)
Calls of active or inactive are those of the source. The rule behind the calls is not given here.

System: T. cruzi-infected H9C2 cardiomyocytes, high-content imaging
Experiment: intracellular T. cruzi amastigote inhibition, imaging, H9C2 host cardiomyocytes, host toxicity (AID 1159565);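 note: infected cells incubated 72 h after plating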
[1] = measured here: H9C2 host cell toxicity
[2] = measured here: amastigotes per cell

Q: Which IC50 does the source give for COCc1cnc2c(c1SCc1c(F)cccc1Cl)c(=O)n(C)c(=O)n2C here?
A: 4 µM

Q: What about the IC50 [1] of the same compound?
A: > 50 µM

Q: And the IC50 [2]?
A: 2.5 µM

Q: With CC1=NN(C(=O)CCn2cnc([N+](=O)[O-])n2)C(O)(C(F)(F)F)C1 (stereo not drawn) as the compound, how does the IC50 read?
A: 6.3 µM

Q: What about the IC50 [1] of the same compound?
A: > 50 µM

Q: What about the IC50 [2] of the same compound?
A: 1.3 µM

Q: How did the IC50 turn out when Cn1nccc1NC(=O)Cn1ccc(-c2ccncc2)n1 was run?
A: > 50 µM (inactive)

Q: What about the IC50 [1] of the same compound?
A: > 50 µM

Q: And the IC50 [2]?
A: > 50 µM

Q: Which results are given for O=C(NCc1ccncc1)c1ccccc1N1CCCN(C(=O)Cc2ccc(F)c(F)c2)CC1?
A: IC50: 0.079 µM; IC50 [1]: > 50 µM; IC50 [2]: 0.079 µM

Q: How did the IC50 turn out when COc1ccc2nccc([C@H](O)CN3CC[C@H](NC(=O)c4ccc(Br)cc4)[C@@H](O)C3)c2n1 was run?
A: 1.6 µM

Q: And the IC50 [1]?
A: 2 µM

Q: And the IC50 [2]?
A: 0.16 µM

Q: Which results are given for CCCN1CCN(Cc2ccc(S(=O)(=O)Nc3cccc(C)c3)cc2)CC1?
A: IC50: 0.79 µM; IC50 [1]: > 50 µM; IC50 [2]: 0.63 µM

Q: What does the source list for O=C(Nc1n[nH]c(-c2ccccn2)n1)C1CC1c1ccccc1 (stereo not drawn)?
A: IC50: 20 µM; IC50 [1]: > 50 µM; IC50 [2]: 16 µM

Q: What does the source list for O=C(Nc1ccccc1)Nc1nc(-c2ccccn2)cs1?
A: IC50: 1 µM; IC50 [1]: 1 µM; IC50 [2]: 0.63 µM

Q: How did the IC50 turn out when O=S(=O)(c1ccccc1C(F)(F)F)N1CCN(Cc2ccc(-n3ccnc3)cc2)CC1 was run?
A: 0.25 µM

Q: And the IC50 [1]?
A: > 50 µM

Q: And the IC50 [2]?
A: 0.2 µM

Q: With Cc1cc(NC(=O)c2ccc([N+](=O)[O-])s2)ccc1Br as the compound, how does the IC50 read?
A: 0.4 µM

Q: And the IC50 [1]?
A: 2.5 µM

Q: What about the IC50 [2] of the same compound?
A: 0.25 µM

Q: How did the IC50 turn out when CN(CC1CCCO1)S(=O)(=O)c1ccc(C(=O)Nc2nc(-c3ccccn3)cs2)cc1 (stereo not drawn) was run?
A: 2 µM

Q: And the IC50 [1]?
A: 20 µM

Q: What about the IC50 [2] of the same compound?
A: 1.3 µM

Q: CC(C)Oc1cccc(N2CCC(C(=O)N3CCCN(C(C)C)CC3)CC2)c1 was tested. Which IC50 did it give?
A: 0.63 µM

Q: What about the IC50 [1] of the same compound?
A: > 50 µM

Q: What about the IC50 [2] of the same compound?
A: 0.25 µM

Q: CN(Cc1nc2c(C(=O)N3CCN(Cc4ccccc4)CC3)cccc2[nH]1)C1CCCc2cccnc21 (stereo not drawn) was tested. Which IC50 did it give?
A: 0.5 µM

Q: What about the IC50 [1] of the same compound?
A: 7.9 µM

Q: What about the IC50 [2] of the same compound?
A: 0.5 µM

Q: For CCc1cccc(CC)c1-n1c(SCC(=O)NC(=O)NCc2ccco2)nnc1-c1cccnc1, which IC50 is on record?
A: 13 µM

Q: And the IC50 [1]?
A: > 50 µM

Q: What about the IC50 [2] of the same compound?
A: 7.9 µM

Q: Which IC50 does the source give for N#Cc1cc([N+](=O)[O-])ccc1NC1CCCCCC1 here?
A: 2 µM

Q: What about the IC50 [1] of the same compound?
A: > 50 µM

Q: And the IC50 [2]?
A: 1.3 µM

Q: Which results are given for COc1ccc(OC)c(S(=O)(=O)N(Cc2c(F)cccc2F)[C@@H]2CCN(C#N)C2)c1?
A: IC50: 13 µM; IC50 [1]: 16 µM; IC50 [2]: 6.3 µM

Q: Which IC50 does the source give for O=C(NCCCn1cnc2ccccc21)c1ccc(NC(=O)c2ccco2)cc1 here?
A: 2 µM

Q: And the IC50 [1]?
A: > 50 µM

Q: And the IC50 [2]?
A: 1.3 µM

Q: Cc1cnc(Nc2cc(Cc3ccccc3)nc(NC3CCC(O)CC3)n2)s1 (stereo not drawn) was tested. Which IC50 did it give?
A: 0.13 µM

Q: And the IC50 [1]?
A: 0.032 µM

Q: And the IC50 [2]?
A: 0.05 µM

Q: Which results are given for Cc1cccc(NS(=O)(=O)c2ccc3c(c2)C(=O)c2cc(S(=O)(=O)Nc4cccc(C)c4C)ccc2-3)c1C?
A: IC50: 0.4 µM; IC50 [1]: 32 µM; IC50 [2]: 0.4 µM

Q: What does the source list for Cc1nc2c(-c3n[nH]c(-c4ccccc4N)n3)cccn2c1C?
A: IC50: 2.5 µM; IC50 [1]: 5 µM; IC50 [2]: 1.6 µM

Q: How did the IC50 turn out when CC1(C)CCC(=Cc2ccc(Cl)cc2)CC1(O)Cn1ccnc1 (stereo not drawn) was run?
A: 0.0079 µM

Q: And the IC50 [1]?
A: 32 µM

Q: And the IC50 [2]?
A: 0.005 µM

Q: How did the IC50 turn out when CC(Cn1ccnc1)NC(=O)C=Cc1ccc(Cl)cc1 (stereo not drawn) was run?
A: 1 µM

Q: And the IC50 [1]?
A: > 50 µM

Q: What about the IC50 [2] of the same compound?
A: 0.63 µM

Q: What does the source list for CC(=Cc1ccccc1)CN1CCC(=O)N(Cc2cccnc2)CC1?
A: IC50: 0.5 µM; IC50 [1]: > 50 µM; IC50 [2]: 0.5 µM

Q: Cc1ccccc1CNc1cc(C2CC2)nc(-c2nccn2C)n1 was tested. Which IC50 did it give?
A: 0.79 µM

Q: And the IC50 [1]?
A: 0.79 µM

Q: What about the IC50 [2] of the same compound?
A: 0.79 µM

Q: Which IC50 does the source give for O=C(c1cccc(Nc2ncc(-c3ccc4c(c3)OCO4)cn2)c1)N1CCSC1 here?
A: 0.25 µM

Q: And the IC50 [1]?
A: 1 µM

Q: What about the IC50 [2] of the same compound?
A: 0.2 µM

Q: How did the IC50 turn out when CCOc1ccccc1C(=O)Nc1nnc(-c2ccc3c(c2)OCO3)s1 was run?
A: 0.079 µM

Q: And the IC50 [1]?
A: > 50 µM

Q: What about the IC50 [2] of the same compound?
A: 0.063 µM

Q: For Cc1ncsc1CNc1cnc(-c2ccc3c(c2)OCCO3)c(-c2cnn(C)c2)c1, which IC50 is on record?
A: 40 µM

Q: And the IC50 [1]?
A: > 50 µM

Q: And the IC50 [2]?
A: 20 µM

Q: What does the source list for Cc1cc(Br)cc(C(=O)c2c(C(C)C)c(=O)[nH]c(=O)n2Cc2ccnc(N)c2)c1?
A: IC50: 0.32 µM; IC50 [1]: > 50 µM; IC50 [2]: 0.25 µM

Q: Which results are given for c1ccc(-c2nc(NC3CCCC3)c3ccccc3n2)nc1?
A: IC50: 0.79 µM; IC50 [1]: 0.5 µM; IC50 [2]: 2 µM

Q: With O=C(CSc1nnc2ccc(-c3ccc(F)cc3)nn12)N1CCCCC1 as the compound, how does the IC50 read?
A: 2 µM

Q: What about the IC50 [1] of the same compound?
A: > 50 µM

Q: And the IC50 [2]?
A: 1 µM

Q: Which IC50 does the source give for CCCCn1nnnc1CSc1nc(C)cc(C)c1C#N here?
A: 0.2 µM

Q: What about the IC50 [1] of the same compound?
A: > 50 µM

Q: What about the IC50 [2] of the same compound?
A: 0.1 µM

Q: Which results are given for CC(C)C[C@H](NC(=O)c1csc(-c2cccs2)n1)C(=O)NC1(C#N)CC1?
A: IC50: > 50 µM (inactive); IC50 [1]: > 50 µM; IC50 [2]: 20 µM

Q: What does the source list for CS(=O)(=O)c1ccc(Nc2nccc(-c3cnn4ncccc34)n2)cc1?
A: IC50: 25 µM; IC50 [1]: 5 µM; IC50 [2]: 1 µM

Q: Which IC50 does the source give for Cn1nc(C(=O)N2CCc3ccccc32)c2c1CCS(=O)(=O)C2 here?
A: 13 µM

Q: And the IC50 [1]?
A: > 50 µM

Q: What about the IC50 [2] of the same compound?
A: 7.9 µM

Q: Which results are given for NC(=O)c1ccccc1Nc1nc(NC2CCCCC2)nc2[nH]ccc12?
A: IC50: 1 µM; IC50 [1]: 25 µM; IC50 [2]: 1 µM

Q: With C[C@@H](Oc1cc(-n2cnc3cc(N)ccc32)sc1C(N)=O)c1ccccc1Cl as the compound, how does the IC50 read?
A: 20 µM

Q: What about the IC50 [1] of the same compound?
A: 1 µM

Q: What about the IC50 [2] of the same compound?
A: 5 µM

Q: For Cc1c(Nc2cc(C3CC3)[nH]n2)ccc(C#N)c1Cl, which IC50 is on record?
A: 25 µM

Q: What about the IC50 [1] of the same compound?
A: 10 µM

Q: What about the IC50 [2] of the same compound?
A: 16 µM

Q: What does the source list for CNc1cc(C)nc(C2CN(C(=O)c3n[nH]c4ccccc34)CCO2)c1 (stereo not drawn)?
A: IC50: 2.5 µM; IC50 [1]: > 50 µM; IC50 [2]: 0.79 µM

Q: What does the source list for Nc1cc(-c2ccc3ncnc(N4CCOCC4)c3c2)cnc1N?
A: IC50: 5 µM; IC50 [1]: 3.2 µM; IC50 [2]: 1.6 µM

Q: How did the IC50 turn out when COc1ccc2ncc(=O)n(CCN3CCC(NCc4ccc(-c5cccs5)cc4)CC3)c2n1 was run?
A: 1.6 µM

Q: And the IC50 [1]?
A: 7.9 µM

Q: And the IC50 [2]?
A: 0.16 µM

Q: How did the IC50 turn out when O=C(CN(Cc1ccccn1)Cc1ccccn1)NCc1csc(-c2cccs2)n1 was run?
A: 6.3 µM

Q: What about the IC50 [1] of the same compound?
A: > 50 µM

Q: And the IC50 [2]?
A: 2.5 µM

Q: What does the source list for C=CCOCC1Cn2nc([N+](=O)[O-])nc2O1 (stereo not drawn)?
A: IC50: 1.3 µM; IC50 [1]: > 50 µM; IC50 [2]: 0.63 µM

Q: With Cc1cc(C)n(-c2nc(NC(C)C)nc(NC(C)(C)C)n2)n1 as the compound, how does the IC50 read?
A: 1.6 µM

Q: And the IC50 [1]?
A: 0.2 µM

Q: What about the IC50 [2] of the same compound?
A: 0.5 µM

Q: How did the IC50 turn out when O=c1[nH]ccc2ccc(-c3ccncc3)cc12 was run?
A: 0.25 µM

Q: And the IC50 [1]?
A: > 50 µM

Q: What about the IC50 [2] of the same compound?
A: 0.25 µM

Q: How did the IC50 turn out when CCCCCNC(=O)c1c[nH]c2ccc(S(=O)(=O)N(C)c3ccc(OCC)cc3)cc2c1=O was run?
A: > 50 µM (inactive)

Q: What about the IC50 [1] of the same compound?
A: > 50 µM

Q: What about the IC50 [2] of the same compound?
A: > 50 µM

Q: For CC(CNS(=O)(=O)c1ccc(OC(F)F)cc1)c1ccc(NC(=O)c2ccncc2)cc1 (stereo not drawn), which IC50 is on record?
A: 0.1 µM

Q: What about the IC50 [1] of the same compound?
A: > 50 µM

Q: And the IC50 [2]?
A: 0.079 µM

Q: How did the IC50 turn out when Cc1ccccc1NS(=O)(=O)c1ccc2[nH]cc(C(=O)NC3CCCC(C)C3C)c(=O)c2c1 (stereo not drawn) was run?
A: 6.3 µM

Q: What about the IC50 [1] of the same compound?
A: 6.3 µM

Q: And the IC50 [2]?
A: 3.2 µM

Q: Cc1ccc(S(=O)(=O)Nc2ccc(CN3CCN(C(=O)c4cccc(C)c4)CC3)cc2)cc1 was tested. Which IC50 did it give?
A: 0.32 µM

Q: And the IC50 [1]?
A: > 50 µM

Q: What about the IC50 [2] of the same compound?
A: 0.32 µM

Q: Which IC50 does the source give for CS(=O)(=O)N1CCC(Nc2ncc(Br)c(Nc3cccc(F)c3C(N)=O)n2)CC1 here?
A: 1 µM

Q: What about the IC50 [1] of the same compound?
A: 0.16 µM

Q: And the IC50 [2]?
A: 0.4 µM

Q: For CCOC(=O)c1cn[nH]c1S(=O)(=O)N1CCC1c1ccccc1 (stereo not drawn), which IC50 is on record?
A: > 50 µM (inactive)

Q: What about the IC50 [1] of the same compound?
A: > 50 µM

Q: What about the IC50 [2] of the same compound?
A: > 50 µM

Q: How did the IC50 turn out when NCc1ccc2c(Cl)cc(Cl)c(O)c2n1 was run?
A: 2 µM

Q: And the IC50 [1]?
A: 6.3 µM

Q: And the IC50 [2]?
A: 1.3 µM
